Values after ≈ are worked out from the molar mass of the structure shown.

This is an account of results in patent US8470770B2, “Antimicrobial agents” (priority 2007, dated 2013).

Data set [1] has as its system Escherichia coli (ATCC 35218). Briefly: microbe, parasite or virus in culture. The following applies: ATCC 35218. On the procedure: (§1) Minimal inhibitory concentrations (MICs) were determined by microdilution susceptibility testing in 96-well plates using inocula of 10^6 bacteria per ml.
(§2) Cell populations were evaluated by optical density measurements at 600 nm and were calibrated against a set of standards. Hundred (100) μl of a bacterial suspension were added to 100 μl of culture medium (control) or to 100 μl of culture medium containing various polymer concentrations in 2-fold serial dilutions.
(§3) Alternatively, MICs were determined using the microbroth dilution assay recommended by the Clinical and Laboratory Standards Institute (CLSI) using two-fold serial dilutions in cation-adjusted Mueller-Hinton broth (CAMHB).
“MIC E.c.” represents the minimal inhibitory concentration of each tested polymer in μM for E. coli, measured as described hereinabove in the antibacterial activity assay (column 5 in Table 3);

The subject of data set [2] is Pseudomonas aeruginosa (ATCC 9027). Briefly: microbe, parasite or virus in culture. The following applies: ATCC 9027. On the procedure:
as §1, §2, §3
“MIC P.a.” represents the minimal inhibitory concentration of each tested polymer in μM for P. aeruginosa, measured as described hereinabove for the antibacterial activity assay (column 7 in Table 3);

Data set [3] in a line: Hydrophobicity estimation by HPLC reversed-phase C18 elution. Format: physicochemical. The following applies: HPLC-RP C18, linear acetonitrile gradient 1% per minute. On the procedure: HPLC chromatograms were performed on C18 columns (Vydak, 250 mm×4.6 or 10 mm) using a linear gradient of acetonitrile in water (1% per minute), both solvents contained 0.1% trifluoroacetic acid. The purified polymers were subjected to mass spectrometry (ZQ Waters) to confirm their composition and stored as a lyophilized powder at −20° C. Prior to being tested, fresh solutions were prepared in water, mixed by vortex, solubilized by ultrasound, centrifuged and then diluted in the appropriate medium.
In order to estimate the hydrophobicity of each polymer, the polymer was eluted with a linear gradient of acetonitrile (1% per minute) on an HPLC reversed-phase C18 column, and the percent of acetonitrile at which the polymer was eluted was used for hydrophobicity estimation (see, “ACN (%)” in Table 3 below).
“ACN (%)” represents the percent of acetonitrile in the HPLC-RP gradient mobile phase at which the polymer was eluted and which corresponds to the estimated hydrophobicity of the polymer (column 4 in Table 3);

Data set [4] deals with methicillin resistant Staphylococcus aureus (CI 15903). Briefly: microbe, parasite or virus in culture. The following applies: methicillin resistant (CI 15903). On the procedure:
as §1, §2, §3
“MIC MR S.a.” represents the minimal inhibitory concentration of each tested polymer in μM for methicillin-resistant S. aureus, measured as described hereinabove for the antibacterial activity assay of antibiotic-resistant bacteria (column 8 in Table 3);

Data set [5] has as its system Bacillus cereus (ATCC 11778). On the procedure: as §1, §2, §3
“MIC B.c.” represents the minimal inhibitory concentration of each tested polymer in μM for Bacillus cereus, measured as described hereinabove for the antibacterial activity assay (column 9 in Table 3); and […]

As for `NCCCCC1NC(=O)CCCCCCCCCCCNC(=O)C(CCCCN)NC(=O)CCCCCCCCCCCNC(=O)C(CCCCN)NC(=O)CCCCCCCCCCCNC1=O` (stereo not shown) [Polymer 4, Cyclic-(NC12K)3], the “MIC E.c.” value in data set [1] is >50 µM. Also, in data set [2], the “MIC P.a.” value is >50 µM. In addition, the “ACN (%) (percent of acetonitrile at which the polymer was eluted; estimated hydrophobicity)” value in data set [3] was 47.0%. Besides, the “MIC MR S.a.” value in data set [4] is 12.5 µM (≈ 12.2 µg/mL). Besides, the “MIC B.c” value in data set [5] was >50 µM.

Regarding `NCCCCC1NC(=O)CCCCCCCCCCCNC(=O)C(CCCCN)NC(=O)CCCCCCCCCCCNC(=O)C(CCCCN)NC(=O)CCCCCCCCCCCNC(=O)C(CCCCN)NC(=O)CCCCCCCCCCCNC1=O` (stereo not shown) [Polymer 5, Cyclic-(NC12K)4], in data set [1], the “MIC E.c.” value is >50 µM. Moreover, the “MIC P.a.” value in data set [2] is >50 µM. Moreover, in data set [3], the “ACN (%) (percent of acetonitrile at which the polymer was eluted; estimated hydrophobicity)” value is listed as 47.4%. Further, the “MIC MR S.a.” value in data set [4] was >50 µM. Also, the “MIC B.c” value in data set [5] was >50 µM.
